In ChEMBL document CHEMBL4699511, “Cedrol, a Sesquiterpene Alcohol, Enhances the Anticancer Efficacy of Temozolomide in Attenuating Drug Resistance via Regulation of the DNA Damage Response and MGMT Expression” (J Nat Prod, 2020):
The source made the active and inactive calls. The rule behind the calls is not given here.

Experiments:
[1] = Synergistic cytotoxicity against rat CTX TNA2 cells assessed as combination index at 89.9 uM after 48 hrs in presence of 309 uM TMZ by MTT assay; type: cell-based; details: ctx tna2, 48 h
RG2 [2] = assay: Cytotoxicity against rat RG2 cells assessed as reduction in cell viability after 48 hrs by MTT assay; type: functional, cell-based; details: for IC50: RG2, 48 h
DBTRG-05MG [3] = assay: Induction of DNA damage in human DBTRG-05MG cells assessed as H2A.X phosphorylation at ser139 residues at 112.4 uM after 48 hrs by Western blot analysis (reference value: 1); type: functional
DBTRG-05MG [4] = assay: Cytotoxicity against human DBTRG-05MG cells assessed as reduction in cell viability after 72 hrs by MTT assay; type: functional, cell-based
DBTRG-05MG [5] = assay: Potentiation of TMZ-induced antitumor activity against human DBTRG-05MG cells xenografted in BALB/c nude mouse assessed as reduction in tumor growth at 75 mg/kg, sc co-treated with TMZ for 18 days by H and E staining-based bright field microscopic analysis; type: functional, organism-based; details: time 18.0 day
RG2 [6] = assay: Synergistic cytotoxicity against rat RG2 cells assessed as combination index at 112.4 uM after 48 hrs in presence of 206 uM TMZ by MTT assay; type: functional
DBTRG-05MG [7] = assay: Induction of cell cycle arrest in human DBTRG-05MG cells assessed as p21 expression at 112.4 uM after 48 hrs in presence of TMZ by Western blot analysis (reference value: 1); type: functional
DBTRG-05MG [8] = assay: Induction of cell cycle arrest in human DBTRG-05MG cells assessed as accumulation at G0/G1 phase at 112.4 uM after 6 hrs in presence of TMZ by propidium iodide staining based flow cytometric analysis (reference value: 47.16 +/- 1.55%); type: functional
DBTRG-05MG [9] = assay: Induction of DNA damage in human DBTRG-05MG cells assessed as Chk2 phosphorylation at Thr68 residues at 112.4 uM after 48 hrs by Western blot analysis (reference value: 1); type: functional
[10] = Effect on p38 expression in rat RG2 cells at 112.4uM after 48 hrs by Western blot analysis (reference value: 1); type: functional
[11] = Cytotoxicity against rat CTX TNA2 cells assessed as reduction in cell viability after 72 hrs by MTT assay; type: cell-based; details: CTX TNA2, 72 h
RG2 [12] = assay: Synergistic cytotoxicity against rat RG2 cells assessed as combination index at 134.9 uM after 48 hrs in presence of 206 uM TMZ by MTT assay; type: functional
DBTRG-05MG [13] = assay: Induction of DNA damage in human DBTRG-05MG cells assessed as ATR phosphorylation at ser428 residues at 112.4 uM after 48 hrs by Western blot analysis (reference value: 1); type: functional
[14] = Synergistic cytotoxicity against rat CTX TNA2 cells assessed as combination index at 112.4 uM after 48 hrs in presence of 206 uM TMZ by MTT assay; type: cell-based; details: ctx tna2, 48 h
DBTRG-05MG [15] = assay: Induction of cell cycle arrest in human DBTRG-05MG cells assessed as accumulation at S phase at 112.4 uM after 12 hrs by propidium iodide staining based flow cytometric analysis (reference value: 22.76 +/- 1.56%); type: functional
[16] = Cytotoxicity against rat CTX TNA2 cells assessed as reduction in cell viability after 24 hrs by MTT assay; type: cell-based; details: CTX TNA2, 24 h
[17] = Effect on JNK expression in rat RG2 cells at 112.4uM after 48 hrs in presence of TMZ by Western blot analysis (reference value: 1); type: functional
RG2 [18] = assay: Induction of apoptosis in rat RG2 cells assessed as Bax expression at 112.4 uM after 48 hrs by Western blot analysis (reference value: 1); type: functional
[19] = Synergistic cytotoxicity against rat CTX TNA2 cells assessed as combination index at 134.9 uM after 48 hrs in presence of 206 uM TMZ by MTT assay; type: cell-based; details: ctx tna2, 48 h
DBTRG-05MG [20] = assay: Induction of cell cycle arrest in human DBTRG-05MG cells assessed as CDK4 expression at 112.4 uM after 48 hrs in presence of TMZ by Western blot analysis (reference value: 1); type: functional
[21] = biological target: MAP kinase p38 (Homo sapiens) (UniProt O15264+Q15759+Q16539+P53778); assay: Inhibition of p38 phosphorylation at Tyr182 residues in human DBTRG-05MG cells at 112.4uM after 48 hrs by Western blot analysis (reference value: 1); type: cell-based
DBTRG-05MG [22] = assay: Induction of apoptosis in human DBTRG-05MG cells assessed as increase in chromatin condensation at 112.4 uM after 48 hrs in presence of TMZ by TUNEL assay; type: functional, cell-based
DBTRG-05MG [23] = assay: Induction of apoptosis in human DBTRG-05MG cells assessed as increase in DNA fragmentation at 112.4 uM after 48 hrs by TUNEL assay; type: functional, cell-based
RG2 [24] = assay: Induction of cell cycle arrest in rat RG2 cells assessed as accumulation at G2/M phase at 112.4 uM after 6 hrs in presence of TMZ by propidium iodide staining based flow cytometric analysis (reference value: 20.04 +/- 0.55%); type: functional
[25] = Cytotoxicity against rat CTX TNA2 cells assessed as reduction in cell viability after 48 hrs by MTT assay; type: cell-based; details: CTX TNA2, 48 h
DBTRG-05MG [26] = assay: Synergistic cytotoxicity against human DBTRG-05MG cells assessed as combination index at 134.9 uM after 48 hrs in presence of 206 uM TMZ by MTT assay; type: functional
DBTRG-05MG [27] = assay: Cytotoxicity against human DBTRG-05MG cells assessed as reduction in cell viability after 24 hrs by MTT assay; type: functional, cell-based
DBTRG-05MG [28] = assay: Synergistic cytotoxicity against human DBTRG-05MG cells assessed as combination index at 89.9 uM after 48 hrs in presence of 206 uM TMZ by MTT assay; type: functional
RG2 [29] = assay: Cytotoxicity against rat RG2 cells assessed as reduction in cell viability after 72 hrs by MTT assay; type: functional, cell-based; details: for IC50: RG2, 72 h
RG2 [30] = assay: Induction of apoptosis in rat RG2 cells assessed as cleaved caspace-3 expression at 112.4 uM after 48 hrs by Western blot analysis (reference value: 1); type: functional
DBTRG-05MG [31] = assay: Synergistic cytotoxicity against human DBTRG-05MG cells assessed as combination index at 112.4 uM after 48 hrs in presence of 309 uM TMZ by MTT assay; type: functional
DBTRG-05MG [32] = assay: Cytotoxicity against human DBTRG-05MG cells assessed as reduction in cell viability after 48 hrs by MTT assay; type: functional, cell-based
RG2 [33] = assay: Cytotoxicity against rat RG2 cells assessed as reduction in cell viability after 24 hrs by MTT assay; type: functional, cell-based; details: for IC50: RG2, 24 h
RG2 [34] = assay: Inhibition of p38 phosphorylation at Tyr182 residues in rat RG2 cells at 206 uM after 48 hrs by Western blot analysis (reference value: 1); type: cell-based
DBTRG-05MG [35] = assay: Induction of cell cycle arrest in human DBTRG-05MG cells assessed as accumulation at S phase at 206 uM after 12 hrs by propidium iodide staining based flow cytometric analysis (reference value: 22.76 +/- 1.56%); type: functional

C[C@@H]1CC[C@H]2C(C)(C)[C@H]3C[C@@]12CC[C@@]3(C)O [CEDROL]
CI [1]: 1.13
Activity (RG2 [2]): Dose-dependent effect
IC50 (RG2 [2]): 93.3 µM
fold change (FC) (DBTRG-05MG [3]): 0.9
Activity (DBTRG-05MG [4]): Dose-dependent effect
IC50 (DBTRG-05MG [4]): 107 µM
Activity (DBTRG-05MG [5]): Active
CI (RG2 [6]): 0.79
fold change (FC) (DBTRG-05MG [7]): 2.7
Activity (DBTRG-05MG [8]): 49.17%
fold change (FC) (DBTRG-05MG [9]): 1.9
fold change (FC) [10]: 0.8
IC50 [11]: 255 µM
CI (RG2 [12]): 0.84
fold change (FC) (DBTRG-05MG [13]): 1.5
CI [14]: 1.17
Activity (DBTRG-05MG [15]): 14.32%
IC50 [16]: 238 µM
fold change (FC) [17]: 0.5
fold change (FC) (RG2 [18]): 1.1
CI [19]: 1.13
fold change (FC) (DBTRG-05MG [20]): 0.6
fold change (FC) [21]: 1
Activity (DBTRG-05MG [22]): Active
Activity (DBTRG-05MG [23]): Active
Activity (RG2 [24]): 19.39%
IC50 [25]: 280 µM
CI (DBTRG-05MG [26]): 0.59
Activity (DBTRG-05MG [27]): Dose-dependent effect
IC50 (DBTRG-05MG [27]): 119 µM
CI (DBTRG-05MG [28]): 0.74
Activity (RG2 [29]): Dose-dependent effect
IC50 (RG2 [29]): 89.2 µM
fold change (FC) (RG2 [30]): 1.6
CI (DBTRG-05MG [31]): 0.57
Activity (DBTRG-05MG [32]): Dose-dependent effect
IC50 (DBTRG-05MG [32]): 102 µM
Activity (RG2 [33]): Dose-dependent effect
IC50 (RG2 [33]): 107 µM

Cn1nnc2c(C(N)=O)ncn2c1=O [TEMOZOLOMIDE]
IC50 (RG2 [2]): 348 µM
IC50 (DBTRG-05MG [4]): 119 µM
fold change (FC) (RG2 [34]): 1.3
IC50 [11]: 431 µM
IC50 [16]: 666 µM
IC50 [25]: 487 µM
IC50 (DBTRG-05MG [27]): 974 µM
IC50 (RG2 [29]): 107 µM
Activity (DBTRG-05MG [35]): 22.29%
IC50 (DBTRG-05MG [32]): 355 µM
IC50 (RG2 [33]): 962 µM
